Results reported in patent US9815847B2 (Icahn School of Medicine at Mount Sinai, priority 2013, dated 2017).

Legend:
DAUDI = assay: Cytotoxicity assay, dose response end point; format: cell-based; conditions: Homo sapiens, Burkitt's lymphoma, 96 h
Protocol: (§1) The following tumor cell lines were tested using a dose response end point assay system with compound (8h). The cells were grown in either DMEM or RPMI supplemented with 10% fetal bovine serum and 1 unit/mL Penicillin-Streptomycin solution. The tumor cells were plated into 6-well dishes at a cell density of 1.0×10^5 cells/mL/well and the test compound was added 24 h. later at various concentrations. Cell counts were determined from duplicate wells after 96 h. of treatment. The total number of viable cells was determined by trypan blue exclusion.

MIA-PaCa-2 = assay: Cytotoxicity assay, dose response end point; format: cell-based; conditions: Homo sapiens; MIA-PaCa-2, pancreatic carcinoma; 96 h
Protocol: as §1

MOLT-4 = assay: Cytotoxicity assay, dose response end point; format: cell-based; conditions: Homo sapiens; MOLT-4, acute lymphoblastic leukemia; 96 h
Protocol: as §1

DU145 = assay: Cytotoxicity assay, dose response end point; format: cell-based; conditions: Homo sapiens, DU-145; DU145, prostate carcinoma; 96 h
Protocol: as §1

U266 = assay: Cytotoxicity assay, dose response end point; format: cell-based; conditions: Homo sapiens, U-266; U266, multiple myeloma; 96 h
Protocol: as §1

CEM = assay: Cytotoxicity assay, dose response end point; format: cell-based; conditions: Homo sapiens, CCRF-CEM, T-cell leukemia, 96 h
Protocol: as §1

Z138C = assay: Cytotoxicity assay, dose response end point; format: cell-based; conditions: mantle cell lymphoma, 96 h
Protocol: as §1

U937 = assay: Cytotoxicity assay, dose response end point; format: cell-based; conditions: Homo sapiens, U-937; U937, histiocytic lymphoma; 96 h
Protocol: as §1

PANC 10.05 = assay: Cytotoxicity assay, dose response end point; format: cell-based; conditions: Homo sapiens, Panc1005; PANC 10.05, pancreatic adenocarcinoma; 96 h
Protocol: as §1

PANC 03.27 = assay: Cytotoxicity assay, dose response end point; format: cell-based; conditions: Homo sapiens, PANC-03-27; PANC 03.27, Pancreatic adenocarcinoma; 96 h
Protocol: as §1

HL-60 = assay: Cytotoxicity assay, dose response end point; format: cell-based; conditions: Homo sapiens; HL-60, promyelocytic leukaemia; 96 h
Protocol: as §1

K562 = assay: Cytotoxicity assay, dose response end point; format: cell-based; conditions: Homo sapiens; K562, chronic myelogenous leukemia; 96 h
Protocol: as §1

ASPC-1 = assay: Cytotoxicity assay, dose response end point; format: cell-based; conditions: Homo sapiens, ASPC1; ASPC-1, pancreatic adenocarcinoma; 96 h
Protocol: as §1

SU.86.86 = assay: Cytotoxicity assay, dose response end point; format: cell-based; conditions: Homo sapiens; SU.86.86, pancreatic ductal carcinoma; 96 h
Protocol: as §1

CEM/C2 = assay: Cytotoxicity assay, dose response end point; format: cell-based; conditions: Homo sapiens; CEM/C2, T-cell leukemia; 96 h
Protocol: as §1

A431 = assay: Cytotoxicity assay, dose response end point; format: cell-based; conditions: Homo sapiens, A-431; A431, epidermoid carcinoma; 96 h
Protocol: as §1

Nalmalwa = assay: Cytotoxicity assay, dose response end point; format: cell-based; conditions: Burkitt's lymphoma, 96 h
Protocol: as §1

HEL = assay: Cytotoxicity assay, dose response end point; format: cell-based; conditions: human erythroleukemia, 96 h
Protocol: as §1

HPAF-II = assay: Cytotoxicity assay, dose response end point; format: cell-based; conditions: Homo sapiens, pancreatic adenocarcinoma, 96 h
Protocol: as §1

RAJI = assay: Cytotoxicity assay, dose response end point; format: cell-based; conditions: Homo sapiens, Burkitt's lymphoma, 96 h
Protocol: as §1

HCT-15 = assay: Cytotoxicity assay, dose response end point; format: cell-based; conditions: Homo sapiens; HCT-15, Dukes' type C colorectal adenocarcinoma; 96 h
Protocol: as §1

HT-29 = assay: Cytotoxicity assay, dose response end point; format: cell-based; conditions: Homo sapiens; HT-29, colonic adenocarcinoma; 96 h
Protocol: as §1

BT474 = assay: Cytotoxicity assay, dose response end point; format: cell-based; conditions: Homo sapiens, BT-474; BT474, Breast carcinoma; 96 h
Protocol: as §1

HCT-116 = assay: Cytotoxicity assay, dose response end point; format: cell-based; conditions: Homo sapiens; HCT-116, colon cancer; 96 h
Protocol: as §1

CAPAN-1 = assay: Cytotoxicity assay, dose response end point; format: cell-based; conditions: Homo sapiens; CAPAN-1, pancreatic ductal adenocarcinoma; 96 h
Protocol: as §1

BXPC-3 = assay: Cytotoxicity assay, dose response end point; format: cell-based; conditions: Homo sapiens; BXPC-3, pancreatic adenocarcinoma; 96 h
Protocol: as §1

MES-SA = assay: Cytotoxicity assay, dose response end point; format: cell-based; conditions: Homo sapiens, uterine sarcoma, 96 h
Protocol: as §1

HFL-1 = assay: Cytotoxicity assay, dose response end point; format: cell-based; conditions: Homo sapiens, HFL1; HFL-1, fetal lung fibroblast; 96 h
Protocol: as §1

HL-60/MX2 = assay: Cytotoxicity assay, dose response end point; format: cell-based; conditions: Homo sapiens, HL60/MX2; HL-60/MX2, promyelocytic leukaemia; 96 h
Protocol: as §1

MES-SA/DX5 = assay: Cytotoxicity assay, dose response end point; format: cell-based; conditions: Homo sapiens; MES-SA/DX5, Uterine sarcoma; 96 h
Protocol: as §1

HELA = assay: Cytotoxicity assay, dose response end point; format: cell-based; conditions: Homo sapiens, Cervical adenocarinoma, 96 h
Protocol: as §1

KG-1a = assay: Cytotoxicity assay, dose response end point; format: cell-based; conditions: Homo sapiens, acute myelogenous leukemia, 96 h
Protocol: as §1

32D-T315I = assay: Cytotoxicity assay, dose response end point; format: cell-based; conditions: chronic myelogenous leukemia, 96 h
Protocol: as §1

ABL2/ARG = target: T1, ABL2/ARG (Homo sapiens, UniProt P42684); assay: Inhibition of ABL mutants, kinase assay; format: biochemical; conditions: 10 μM ATP; 5-dose IC50 mode
T1 construct: purchased Reaction Biology Corporation
T1 sequence (P42684 whole entry): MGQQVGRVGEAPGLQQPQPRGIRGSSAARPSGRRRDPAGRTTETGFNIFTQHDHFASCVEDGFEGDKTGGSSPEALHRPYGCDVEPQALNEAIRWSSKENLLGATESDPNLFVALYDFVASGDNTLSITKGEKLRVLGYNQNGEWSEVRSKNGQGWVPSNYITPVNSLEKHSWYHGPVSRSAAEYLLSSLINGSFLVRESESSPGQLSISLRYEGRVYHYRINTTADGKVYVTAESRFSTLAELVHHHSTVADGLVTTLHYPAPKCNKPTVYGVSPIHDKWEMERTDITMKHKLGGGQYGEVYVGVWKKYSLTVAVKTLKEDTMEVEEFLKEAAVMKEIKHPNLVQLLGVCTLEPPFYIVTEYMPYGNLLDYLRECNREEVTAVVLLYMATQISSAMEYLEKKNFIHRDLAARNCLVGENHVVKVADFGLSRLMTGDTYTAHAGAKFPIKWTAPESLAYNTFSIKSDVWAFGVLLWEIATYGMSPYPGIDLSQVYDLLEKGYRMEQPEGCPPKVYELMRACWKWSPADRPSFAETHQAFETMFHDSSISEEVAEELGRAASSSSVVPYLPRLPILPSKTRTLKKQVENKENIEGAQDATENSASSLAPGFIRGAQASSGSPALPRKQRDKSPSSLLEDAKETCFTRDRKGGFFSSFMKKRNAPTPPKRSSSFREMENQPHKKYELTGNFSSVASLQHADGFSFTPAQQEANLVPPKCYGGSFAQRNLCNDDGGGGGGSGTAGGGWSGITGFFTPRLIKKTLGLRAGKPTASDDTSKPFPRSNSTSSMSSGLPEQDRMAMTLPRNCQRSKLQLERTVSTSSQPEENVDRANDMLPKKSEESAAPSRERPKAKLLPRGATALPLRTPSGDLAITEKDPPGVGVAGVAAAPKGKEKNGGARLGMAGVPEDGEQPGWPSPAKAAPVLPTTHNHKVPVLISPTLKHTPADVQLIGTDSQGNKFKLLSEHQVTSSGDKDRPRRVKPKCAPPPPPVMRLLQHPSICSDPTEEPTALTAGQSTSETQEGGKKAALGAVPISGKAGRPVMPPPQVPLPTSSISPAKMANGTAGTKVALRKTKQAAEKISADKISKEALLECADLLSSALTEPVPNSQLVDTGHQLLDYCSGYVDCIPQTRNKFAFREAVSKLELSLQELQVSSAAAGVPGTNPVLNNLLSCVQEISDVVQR
Protocol: Kinase assays were performed at Reaction Biology Corporation. To a freshly prepared buffer solution was added the target kinase at a concentration of […]. The contents were mixed gently, and then compound (8h) dissolved in DMSO was added to the reaction mixture in the appropriate concentration. The mixture was incubated at room temperature for 30 min. prior to addition of ATP to initiate the reaction. Compound (8h) was tested in a 5-dose IC50 mode with 10-fold serial dilutions starting at 10 μM. Staurosporine was used as a control compound in a 10-dose IC50 mode with 3-fold serial dilutions starting at 20 μM. Reaction was carried out at 10 μM ATP concentration.

SMILES: CN1CCN(c2ccc(Nc3ncc(/C=C/C#N)c(NC4CCCC4)n3)cc2)CC1 [Compound 8h, 3-{4-Cyclopentylamino-2-[4-(4-methylpiperazin-1-yl)phenylamino]pyrimidin-5-yl}acrylonitrile]
- GI50 (DAUDI): 100 nM
- GI50 (MIA-PaCa-2): > 5000 nM
- GI50 (MOLT-4): 100 nM
- GI50 (DU145): < 500 nM
- GI50 (U266): 1000 nM
- GI50 (CEM): 1500 nM
- GI50 (Z138C): 3000 nM
- GI50 (U937): 100 nM
- GI50 (PANC 10.05): > 5000 nM
- GI50 (PANC 03.27): 3000 nM
- GI50 (HL-60): 500 nM
- GI50 (K562): 40 nM
- GI50 (ASPC-1): > 5000 nM
- GI50 (SU.86.86): 5000 nM
- GI50 (CEM/C2): 1500 nM
- GI50 (A431): 100 nM
- GI50 (Nalmalwa): 200 nM
- GI50 (HEL): < 250 nM
- GI50 (HPAF-II): 5000 nM
- GI50 (RAJI): < 20 nM
- GI50 (HCT-15): 30 nM
- GI50 (HT-29): 50 nM
- GI50 (BT474): 2500 nM
- GI50 (HCT-116): 500 nM
- GI50 (CAPAN-1): 100 nM
- GI50 (BXPC-3): 100 nM
- GI50 (MES-SA): 20 nM
- GI50 (HFL-1): 100 nM
- GI50 (HL-60/MX2): 250 nM
- GI50 (MES-SA/DX5): < 20 nM
- GI50 (HELA): > 5000 nM
- GI50 (KG-1a): < 20 nM
- GI50 (32D-T315I): 500 nM
- IC50 (ABL2/ARG): < 100 nM
